Literature values in US20110195912A1, “Oligomer-Protease Inhibitor Conjugates” (Nektar Therapeutics, priority 2008, published 2011).
Where two headings read alike, the source gives them in different places.

Legend:
HCV = settings: monotherapy, twice daily doses for 14 days
[1] = rat; twice daily oral dosing for seven days
[2] = monkey; twice daily oral dosing for seven days
HCV genotype 1 [3] = settings: 100-400 mg twice daily; patients with HCV genotype 1 that had failed pegIFN-α 2a therapy
HCV genotype 1 [4] = settings: 200 or 400 mg thrice daily, 14 days; non-responder patients with HCV genotype 1

CC(C)(C)OC(=O)N[C@H]1CCCCC/C=C\[C@@H]2C[C@@]2(C(=O)NS(=O)(=O)C2CC2)NC(=O)[C@@H]2C[C@@H](OC(=O)N3Cc4cccc(F)c4C3)CN2C1=O [ITMN-191]
viral RNA levels (HCV): rapid reduction in viral RNA levels | liver trough concentrations following the last dose [1]: in excess of in vitro EC90 values | liver trough concentrations following the last dose [2]: in excess of in vitro EC90 values

CC(C)(C)NC(=O)N[C@H](C(=O)N1CC2[C@@H]([C@H]1C(=O)NC(CC1CCC1)C(=O)C(N)=O)C2(C)C)C(C)(C)C (some centres unmarked) [Boceprevir]
antiviral activity as a monotherapy (HCV genotype 1 [3]): demonstrated antiviral activity | efficacy in combination with pegIFN-α2a (HCV genotype 1 [4]): efficacious
